Experimental data from PMC7381740 (Theranostics, 2020).
Values joined by “and” are separate entries in the source; they are usually repeats but may differ in a detail not shown here. Equal values may be shown once.

Columns and labels:
S1R [1] = target: T1, S1R (Rattus norvegicus, UniProt Q9R0C9); assay: Autoradiography in AMPA-injected rat brain sections; type: binding; conditions: striatum (caudate-putamen + globus pallidus), AMPA rats
Description: (§1) Animals were maintained normothermic (body temperature: 37.0 ± 0.4 °C) during the surgery through the use of a heating blanket (Homeothermic Blanket Control Unit, Harvard Apparatus Limited®, Edenbridge, Kent, UK). Twenty-four hours later, the rats were anesthetized again as described above and scanned with a 3T cryogen-free MRS 3000 scanner with a quadrature, rat head coil (MR Solutions, Guildford, UK), [35] to assess oedema (i.e. lesion size and location) immediately before the PET scan. Parameters for the T2-weighted RARE sequence were: repetition time = 4800 ms, base echo time = 17 ms, effective echo time = 68 ms, number of echoes = 8, bandwidth = 20 kHz, number of samples = 256, number of views = 240, number of averages = 1 with 25 slices of 1.06 mm, giving a final voxel size of 0.136 × 0.136 × 1.06 mm.
Sections of frontal (Brodmann areas 8/9) and temporal cortex (Brodmann areas 21/22) were cut from frozen human tissue blocks. […] Autoradiographs were analysed using AIDA software (Raytest GmbH, Germany). […] Specific binding (total binding minus non-specific binding) in each ROI is expressed as intensity of the photostimulated luminescence (PSL) per pixel.
Specific binding in the ipsi- and contralateral striatum in the rat AMPA model was analysed with a paired t-test.

[2] = Metabolite analysis in plasma and brain (radio-HPLC after i.v. injection); type: in vivo, rat
Description: Blood samples were collected at 1, 2, 5 min post-injection and at 10, 20, 40 or 60 min post-injection when the animals were sacrificed. Seven animals used for metabolites analysis were also scanned for 60 min. Plasma was isolated by centrifugation (3 min, 3000 × g at 4 °C). Two hundred µL of CH3CN was added to 200 µL of serum for protein precipitation and after centrifugation (3 min, 3000 × g at 4 °C), 100 µL of supernatant was injected into the HPLC for quantification (HPLC equipment: Shimadzu prominence with a UV detector and bespoke Scintillation detector; column: ACE 3 C18 HL, [Hichrom], 150 × 4.6 mm; porosity: 3 μm; solvent A: 0.1 M ammonium acetate; solvent B: CH3CN, isocratic elution: 50:50 (A/B) in 15 min; flow rate: 1 mL/min; room temperature; absorbance detection at λ = 254 nm). Animal brains were removed and then homogenised by ultra-Turrax® in 2 mL of ice-cold acetonitrile. After centrifugation (3 min, 9000 × g at 4 °C), the supernatant was separated from the pellet. One hundred microliters of brain supernatant were injected on the HPLC column (same conditions as above). Control samples were spiked with 15 µL of stable standard. The parent radiotracer eluted at 11 minutes.

S1R [3] = target: T2, S1R (Mus musculus, UniProt O55242); assay: Autoradiography in 6-OHDA Parkinson's disease mouse model; type: binding; conditions: 6-OHDA mouse
T2 construct: using 20µm fresh frozen brain sections from 6 naïve and 3 AMPA-injected Wistar rats, 6 C57Bl6 mice; from tissue; host or cells: fresh frozen brain sections of 6-OHDA-lesioned C57Bl6 mice
T2 sequence (O55242 whole entry): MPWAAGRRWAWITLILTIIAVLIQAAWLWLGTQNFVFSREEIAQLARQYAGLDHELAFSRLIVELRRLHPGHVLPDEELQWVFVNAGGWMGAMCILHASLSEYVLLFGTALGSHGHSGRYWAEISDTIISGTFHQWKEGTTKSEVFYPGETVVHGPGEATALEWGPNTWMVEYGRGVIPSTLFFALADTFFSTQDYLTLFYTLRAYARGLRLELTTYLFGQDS
Description: C57Bl6 mice were bred in the animal facility of the European Institute for Molecular Imaging (University of Muenster). Animal experiments were performed in accordance with the German laws for animal protection and were approved by the local bureau for animal care (LANUV, Landesamt für Natur, Umwelt und Verbraucherschutz Nordrhein-Westfalen). For stereotactic injections, mice (n = 6) were anaesthetised (ketamine/xylazine i.p.) and placed into a stereotactic frame. A small skin incision followed by craniotomy was performed. The needle was placed in position (coordinates: AP: +0.5 mm; ML: -2.0 mm; DV: -3.0 mm) and after 1 min, 2 µL of 5 mg/mL 6-hydroxydopamine (6-OHDA) in 0.9% NaCl and 0.02% ascorbic acid were injected into the left striatum using a 5 µL Hamilton 7005KH syringe. The syringe was kept in place for 5 min in order to allow the solution to diffuse into the surrounding tissue and was then retracted slowly.
(§2) Sections of frontal (Brodmann areas 8/9) and temporal cortex (Brodmann areas 21/22) were cut from frozen human tissue blocks. Human and rodents sections were mounted on to glass slides (SuperFrost Plus Gold and SuperFrost Plus slides, Thermo Fisher Scientific Inc., MA, USA for human and animal tissues, respectively). For all steps described below, Tris buffer (Trizma pre-set crystals (Sigma, UK), 50 mM, with 120 mM NaCl, with pH adjusted to 7.4 at 4 °C or room temperature) was used. Slides were allowed to defrost then pre-incubated in Tris Buffer at 4 °C for 5min. […] Adjacent sections were incubated with the same solution containing an excess of unlabelled IAM6067 (2 µM) to assess non-specific binding. Next the slides were washed 2 × 2 min in Tris buffer at 4 °C, followed by a quick rinsing in distilled water at 4 °C. Slides were then dried promptly before exposition on Phosphor-Imager plates overnight. Autoradiographs were analysed using AIDA software (Raytest GmbH, Germany). […] Specific binding (total binding minus non-specific binding) in each ROI is expressed as intensity of the photostimulated luminescence (PSL) per pixel.

S1R [4] = target: T1, S1R; assay: In vitro autoradiography, naive rat brain sections; type: binding; conditions: 2 nM tracer
Description: as §2

S1R [5] = target: T1, S1R; assay: PET-CT brain uptake at baseline; conditions: for maximum brain uptake: PET time-activity curve; for average uptake (sum-image 20-60 min post-injection): baseline
Description: Sixty minutes PET scans were performed on 23 animals on a Siemens Inveon® PET/CT scanner (Injected dose: 38±11MBq). Eight of them were used for basal uptake. […] Animals scanned on multiple occasions (with/without blocking or different blocking agent) were always scanned at least 24 h apart. […] Animal respiration and temperature were controlled using a pressure-sensitive pad and rectal probe (BioVet, m2m Imaging Corp., Cleveland, OH, USA) and body temperature was maintained at 37 ± 0.7 °C via the interface managed by the BioVet system. […] Briefly, a CT scan was performed prior to the PET acquisition for attenuation correction. The list mode emission data were histogrammed into 3D sinograms of 35 dynamic frames, normalized, corrected for dead-time, attenuation, scatter and radioactive decay, and reconstructed using OSEM3D (16 subsets and 4 iterations) into images of dimensions 128 × 128 × 159 voxels of volume 0.776 × 0.776 × 0.796 mm^3.
PET-CT images were co-registered with the rat MRI template and its associated intracranial mask as published by Schwarz et al. [41] and generously provided by GSK. To co-register the MRI template and PET-CT images, individual brain masks were delineated on each CT image and co-registered with the MRI brain mask using rigid registration with mutual information. Image analysis and quantification was performed using the BrainVisa/Anatomist software (http://www.brainvisa.info) using the geometric transfer matrix (GTM) and ROIopt methods for partial volume correction both described and used previously [42]-[46]. […] PET data were expressed as SUV.

S1R [6] = target: T1, S1R; assay: PET in AMPA excitotoxic lesion model; type: in vivo
Description: as §1
PET data were expressed as SUV.
As the experiments with CM398 were performed later, scans without and with pre-treatment with CM398 were performed in the same animals and therefore were analysed using 2 way ANOVA with repeated measures for ROI and treatment. ANOVA were followed by a Sidak's post-hoc test.

σ1 receptor (S1R) = conditions: cited from earlier work

T1 sequence (Q9R0C9 whole entry): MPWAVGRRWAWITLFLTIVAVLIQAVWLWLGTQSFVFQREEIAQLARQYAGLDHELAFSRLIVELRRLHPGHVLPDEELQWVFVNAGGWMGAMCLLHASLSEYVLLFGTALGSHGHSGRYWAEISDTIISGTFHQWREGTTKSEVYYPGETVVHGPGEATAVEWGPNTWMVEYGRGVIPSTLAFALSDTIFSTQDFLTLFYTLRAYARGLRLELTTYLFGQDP

Q: With `FCCOc1ccc(CN2CCN(Cc3cc4ccccc4o3)CC2)cc1` [^18F-IAM6067, N-(2-Benzofuranylmethyl)-N'-[4-(2-fluoroethoxy)benzyl]piperazine] as the molecule, how does the “change in ^18F-IAM6067 specific binding, ipsi- vs contralateral” value (S1R [1]) read?
A: The value was -38 ± 8% and -38%.

Q: And the “Percentage of ^18F-IAM6067 and metabolites” value (shortened to “Percentage”) ([2]; rat brain, 10 min post-injection)?
A: Its value is 91.3±3.7%.

Q: What about the “Percentage” value ([2]; rat brain, 20 min post-injection) of the same molecule?
A: Its value is 94.1±2.8%.

Q: What about the “Percentage” value ([2]; rat brain, 60 min post-injection) of the same molecule?
A: The value was 91.3±6.0%.

Q: And the “Percentage” value ([2]; rat plasma, 1 min post-injection)?
A: The value was 88.8±12.1%.

Q: And the “Percentage” value ([2]; rat plasma, 2 min post-injection)?
A: Its value is 58.3±4.1%.

Q: What about the “Percentage” value ([2]; rat plasma, 5 min post-injection) of the same molecule?
A: The value was 22.4±11.6%.

Q: And the “Percentage” value ([2]; rat plasma, 10 min post-injection)?
A: Its value is roughly 10%.

Q: What about the “Percentage” value ([2]; rat plasma, 10 min post-injection, listed as Parent) of the same molecule?
A: The value was 10.1±8.6%.

Q: What about the “Percentage” value ([2]; rat plasma, 20 min post-injection) of the same molecule?
A: The value was roughly 10%.

Q: And the “Percentage” value ([2]; rat plasma, 20 min post-injection, listed as Parent)?
A: The value was 9.8±4.2%.

Q: And the “Percentage” value ([2]; rat plasma, 60 min post-injection)?
A: The value was “not detectable”.

Q: And the “Percentage” value ([2]; rat plasma, 60 min post-injection, listed as Parent)?
A: The value was 0.0%.

Q: And the specific binding (S1R [3]; cingulate cortex, contralateral)?
A: Its specific binding is 4.29 ± 0.84 PSL/pixel.

Q: What about the specific binding (S1R [3]; cingulate cortex, ipsilateral) of the same molecule?
A: The specific binding was 4.21 ± 0.87 PSL/pixel.

Q: What about the specific binding (S1R [3]; striatum, contralateral) of the same molecule?
A: The specific binding was 3.30 ± 0.55 PSL/pixel.

Q: And the specific binding (S1R [3]; striatum, ipsilateral)?
A: Its specific binding is 3.39 ± 0.49 PSL/pixel.

Q: What about the specific binding (S1R [3]; thalamus medio-dorsal, contralateral) of the same molecule?
A: The specific binding was 3.22 ± 0.65 PSL/pixel.

Q: And the specific binding (S1R [3]; thalamus medio-dorsal, ipsilateral)?
A: The specific binding was 3.25 ± 0.64 PSL/pixel.

Q: And the specific binding (S1R [3]; ventral tegmental area/substantia nigra, contralateral)?
A: Its specific binding is 3.92 ± 1.08 PSL/pixel.

Q: And the specific binding (S1R [3]; ventral tegmental area/substantia nigra, ipsilateral)?
A: The specific binding was 3.82 ± 1.25 PSL/pixel.

Q: What about the specific binding (S1R [4]; cingulate cortex) of the same molecule?
A: The specific binding was 4.96 ± 0.26 PSL/pixel.

Q: What about the specific binding (S1R [4]; hypothalamus) of the same molecule?
A: Its specific binding is 6.79 ± 0.95 PSL/pixel.

Q: What about the specific binding (S1R [4]; pons) of the same molecule?
A: The specific binding was 7.24 ± 0.89 PSL/pixel.

Q: What about the specific binding (S1R [4]; somatosensory cortex) of the same molecule?
A: The specific binding was 4.49 ± 0.51 PSL/pixel.

Q: What about the specific binding (S1R [4]; striatum) of the same molecule?
A: The specific binding was 4.56 ± 0.42 PSL/pixel.

Q: And the maximum brain uptake (S1R [5]; amygdala)?
A: The maximum brain uptake was 3.3 SUV.

Q: What about the “average uptake (sum-image 20-60 min post-injection)” value (shortened to “average uptake”) (S1R [5]; caudate/putamen) of the same molecule?
A: The value was 2.3 ± 0.1 SUV.

Q: And the “average uptake” value (S1R [5]; cingulate cortex)?
A: The value was 2.3 ± 0.2 SUV.

Q: What about the “average uptake” value (S1R [5]; mesencephalic region) of the same molecule?
A: Its value is 4.7 ± 0.3 SUV.

Q: And the “average uptake” value (S1R [5]; pons-raphe)?
A: Its value is 6.4 ± 0.8 SUV.

Q: And the “average uptake” value (S1R [5]; substantia nigra)?
A: Its value is 3.8 ± 0.7 SUV.

Q: What about the “average uptake” value (S1R [5]; temporal cortex) of the same molecule?
A: The value was 2.5 ± 0.2 SUV.

Q: And the “average uptake” value (S1R [5]; thalamus medio-dorsal)?
A: Its value is 3.9 ± 0.4 SUV.

Q: And the “time of maximum brain uptake” value (S1R [5]; post-injection, amygdala and thalamus medio-dorsal)?
A: Its value is 2.25 min.

Q: And the maximum brain uptake (S1R [5]; thalamus medio-dorsal)?
A: Its maximum brain uptake is 5.5 SUV.

Q: What about the “^18F-IAM6067 uptake, AMPA-lesioned vs control rats (in words)” value (S1R [6]; ipsi- and contralateral substantia nigra and pons-raphe) of the same molecule?
A: Its value is “significant increase”.

Q: What about the “change in ^18F-IAM6067 uptake (PET)” value (S1R [6]; lesioned caudate-putamen, 24 h after intrastriatal AMPA 7.5 nmol) of the same molecule?
A: Its value is -16% and -16 ± 11%.

Q: What about the Ki (σ1 receptor (S1R)) of the same molecule?
A: Its Ki is 2.6 nM.
